Assay results taken from patent publication EP0440298A1, “Topical preparations for treating human nails” (BROCADES PHARMA B.V., priority 1990, dated 1991).

Legend:
[1] = Effect of pretreatment with cream on the penetration of oxiconazole in nail discs (Example 8); assay type: in vitro ADME, Human; details: pretreatment with cream twice daily during 5 days, then Oceral lotion (1% oxiconazole) 48 hours at 30°C, 60% relative humidity
Description: A NAC-containing cream and a control cream were prepared as in Example 5.
Human nail discs of 6 mm diameter, resting with their ventral side on pads soaked with saline, were dorsally painted with these creams (n = 2 x 3) twice daily during 5 days. Then the six nail discs were rinsed and mounted on pieces of tubing as in Example 6. Subsequently 20 mg of ¹⁴C oxiconazole was added to 30 ml of Oceral® lotion (i.e. 1% oxiconazole in an alcoholic base). Of this, 30 µl was poured into the tubings on top of the dorsal surfaces of the discs as in Example 6. The free (ventral) surfaces of the nail discs were again kept moist on a pad soaked in saline.
(§1) After 48 hours of incubation at 30°C and 60% relative humidity the discs were sectioned (50 µm) parallel to their dorsal surface, using a freeze-microtome. Radioactivity was measured in the separate sections, after which the amount of penetrated oxiconazole was calculated.

[2] = Penetration of eosine in nail clippings after dorsal application of a film-forming lotion (Example 4); assay type: in vitro ADME, Human; details: after 6 days of film-forming lotion treatment, then 24 hours in 1% eosine solution without NAC
Description: (§2) A film-forming lotion was prepared, consisting by weight of 17.5 parts of distilled water, 17.5 parts of ethanol, 20 parts of acetone, 25 parts of polyvinylpyrrolidone VA-S630 and 20 parts of NAC. The control film-forming lotion lacked the NAC.
(§3) Human nail clippings (n = 2 x 3) were laid on pads soaked in saline, and the two types of film-forming lotion were painted on their dorsal surface twice a day. The weights of the clippings were determined after 3, 4, 5 and 6 days.
After the above 6 days of treatment, the (2 x 3) clippings were rinsed and placed for 24 hours in a solution of 1% eosine, as described in Example 2 (without NAC), and then further processed for the microscopic estimation of dye penetration as in Example 2. The average penetration of the dye through the NAC-penetrated nails was 48% of the nail thickness, compared to 6% in the controls.

[3] = Effect of pretreatment with NAC-containing film-forming lotion on the penetration of oxiconazole in nail discs (Example 7); assay type: in vitro ADME, Human
Description: A 20% w/v NAC-containing film-forming lotion and a control film-forming lotion were prepared as in Example 4.
Human nail discs of 6 mm diameter, resting with their ventral side on pads soaked with saline, were dorsally painted with these film-forming lotions (n = 2 x 3) twice daily during 5 days. Then the six nail discs were rinsed and mounted on pieces of tubing as in Example 6. Subsequently 20 mg of ¹⁴C oxiconazole was added to 30 ml of Oceral® lotion (i.e. 1% oxiconazole in an alcoholic base). Of this, 30 µl was poured into the tubings on top of the dorsal surfaces of the discs as in Example 6. The free (ventral) surfaces of the nail discs were again kept moist on a pad soaked in saline.
as §1

[4] = Penetration of the hydrophilic dye eosine in nail clippings during immersion in a lotion (Example 2); assay type: in vitro ADME, Human; details: lotion with 17% NAC and 1% of eosine; immersion 48 hours at room temperature; microscopic freeze sections
Description: (§4) To a similar solution (lotion) as in Example 1, consisting of (v/v) 40% distilled water, 40% of methyl ethyl ketone and 20% of isopropyl alcohol, were added (w/v) 17% of NAC and 1% of eosine.
(§5) Human nail clippings were immersed in this liquid and in the same liquid without NAC (n = 2 x 3) during 48 hours at room temperature, after which the colour penetration was estimated on microscopic freeze sections.

[5] = Effect of NAC-containing lotion on the penetration of 14C oxiconazole in nail discs (Example 6); assay type: in vitro ADME, human; details: 20% w/v NAC lotion with 1% w/v oxiconazole; 48 hours at 30°C
Description: A 20% w/v NAC-containing lotion and a control lotion were prepared as in Example 1.
To both these preparations was added 1% w/v of oxiconazole, containing a known amount (1 µCi per 30 µl) of radioactive ¹⁴C oxiconazole.
(§6) On human nail discs of 6 mm diameter were mounted 1.5 cm pieces of tubing of 4 mm outer and 3 mm inner diameter, in each of which was poured 30 µl of one of the above lotions (n = 2 x 3). The free (ventral) surfaces of the nail discs were kept moist on a pad soaked in saline.
(§7) After 48 hours of incubation at 30°C and the discs were sectioned (50 µm) parallel to their dorsal surface, using a freeze-microtome. Radioactivity was measured in the separate sections, after which the amount of penetrated oxiconazole was calculated.

[6] = Weight increase of nail clippings during immersion in a lotion (Example 1); design: species or system Human
Description: Solutions (lotions) were prepared, containing (v/v) 40% of distilled water, 40% of methyl ethyl ketone and 20% of isopropyl alcohol.
To these lotions were added salicylic acid, NAC, 1,4-dithiothreitol or mercaptoethylamine, in w/v concentrations as further specified in Table 1.
To distilled water were added glutathione, mercaptoethanol or urea, in w/v concentrations as further specified in Table 1.
(§8) Human nail clippings were immersed in the test and control lotions at ambient temperature and their weight increase expressed as % of their original weight.

[7] = Comparison of sulfhydryl compounds: weight increase of nail clippings during immersion in a lotion (Example 10); design: species or system human; details: 0.1 M in lotion of 50% v/v ethanol in distilled water
Description: as §8
The effects of 0.1 M of each of NAC (pH 2.3), 1,4-dithiothreitol (DTT, not claimed, pH 4.5) and ammonium thioglycolate (ATG, not claimed, pH 9.0), in a lotion consisting of 50% v/v ethanol in distilled water were compared, as in Example 1. The immersion period of the human nail clippings in the control and test lotions was 72 hours.

[8] = Weight increase of nail clippings on dorsal application of a film-forming lotion (Example 4); design: species or system Human; details: film-forming lotion with 20 parts of NAC painted on dorsal surface twice a day; after 3 days (no further change up to 6 days)
Description: as §2, §3

[9] = Penetration of eosine in nail clippings after immersion in a lotion (pretreatment, Example 3); assay type: in vitro ADME, Human; details: pretreatment in NAC lotion lacking eosine, then 24 hours in lotion with 1% eosine lacking NAC
Description: as §4, §5
The same experimental set-up as in Example 2 was used, except that the nail clippings were first immersed in lotions lacking eosine, and subsequently during 24 hours in lotions containing 1% eosine but lacking NAC. n was again 2 x 3.

[10] = assay type: in vitro ADME, human
Description: as §6, §7
To lotions consisting of 50% v/v of ethanol in distilled water were added 0.1 M of NAC (pH 2.3), of 1,4-dithiothreitol (DTT, not claimed, pH 4.5) or of ammonium thioglycolate (ATG, not claimed, pH 9.0), as in Example 10. To all three solutions was also added 1% w/v of oxiconazole, containing a known amount (1 µCi per 30 µl) of radioactive ¹⁴C oxiconazole. These lotions were tested in an experimental set-up as in Examples 6 and 9.

Compound: CC(=O)N[C@@H](CS)C(=O)O [NAC, N-acetyl-cysteine]
- average total uptake of oxiconazole (expressed as a % of the total amount of oxiconazole applied) [1]: 4.0%
- average penetration of the dye, % of the nail thickness [2]: 48%
- average radioactivity in the three pads under the discs ([3]; pretreatment with film-forming lotion 5 days, then 14C oxiconazole in Oceral lotion 48 hours): 7.53%
- average total uptake of oxiconazole (expressed as a % of the total amount of oxiconazole applied) ([3]; pretreatment with film-forming lotion twice daily during 5 days, then Oceral lotion (1% oxiconazole) 48 hours at 30°C, 60% relative humidity): 3.25%
- average penetration of the dye, % of the total nail thickness [4]: 27.5%
- average total uptake of oxiconazole (expressed as a % of the total amount of oxiconazole applied) [5]: 4.94%
- Average % weight increase during immersion (hours) ([6]; 5 % w/v in lotion, 1 hour): 23%
- Average % weight increase during immersion (hours) ([6]; 5 % w/v in lotion, 3 hours): 32%
- Average % weight increase during immersion (hours) ([6]; 5 % w/v in lotion, 6 hours): 38%
- Average % weight increase during immersion (hours) ([6]; 5 % w/v in lotion, 24 hours): 47%
- Average % weight increase during immersion (hours) ([6]; 5 % w/v in lotion, 48 hours): 60%
- Average % weight increase during immersion (hours) ([6]; 5 % w/v in lotion, 72 hours): 70%
- Average % weight increase during immersion (hours) ([6]; 10 % w/v in lotion, 1 hour): 24%
- Average % weight increase during immersion (hours) ([6]; 10 % w/v in lotion, 3 hours): 33%
- Average % weight increase during immersion (hours) ([6]; 10 % w/v in lotion, 6 hours): 38%
- Average % weight increase during immersion (hours) ([6]; 10 % w/v in lotion, 24 hours): 59%
- Average % weight increase during immersion (hours) ([6]; 10 % w/v in lotion, 48 hours): 67%
- Average % weight increase during immersion (hours) ([6]; 10 % w/v in lotion, 72 hours): 79%
- Average % weight increase during immersion (hours) ([6]; 20 % w/v in lotion, 1 hour): 23%
- Average % weight increase during immersion (hours) ([6]; 20 % w/v in lotion, 3 hours): 30%
- Average % weight increase during immersion (hours) ([6]; 20 % w/v in lotion, 6 hours): 37%
- Average % weight increase during immersion (hours) ([6]; 20 % w/v in lotion, 24 hours): 60%
- Average % weight increase during immersion (hours) ([6]; 20 % w/v in lotion, 48 hours): 91%
- Average % weight increase during immersion (hours) ([6]; 20 % w/v in lotion, 72 hours): 110%
- Average % weight increase during immersion (hours) ([6]; 40 % w/v in lotion, 1 hour): 24%
- Average % weight increase during immersion (hours) ([6]; 40 % w/v in lotion, 3 hours): 33%
- Average % weight increase during immersion (hours) ([6]; 40 % w/v in lotion, 6 hours): 38%
- Average % weight increase during immersion (hours) ([6]; 40 % w/v in lotion, 24 hours): 71%
- Average % weight increase during immersion (hours) ([6]; 40 % w/v in lotion, 48 hours): 110%
- Average % weight increase during immersion (hours) ([6]; 40 % w/v in lotion, 72 hours): 154%
- Average % weight increase after immersion during 72 hours [7]: 72%
- weight increase of clippings [8]: 34%
- average penetration of the dye [9]: 19%
- Average amount of oxiconazole (μg), Total [10]: 15.17 µg
